Experimental data from article PMC6491884, “Synthesis and Biological Evaluation of 4β-N-Acetylamino Substituted Podophyllotoxin Derivatives as Novel Anticancer Agents” (Frontiers in Chemistry, 2019).

How the values were obtained:
T24 cells [1] = test: Cell cycle distribution analysis (FACS, propidium iodide), T24; type: cell-based, human
Description: (§1) Flow cytometry analysis was carried out to evaluate cell cycle changes and gain further insight into the mode of action with respect to the anti-proliferative effect of compound 12g. HeLA and T24 cancer cells were treated with the selected compound 12g for […] at three different gradient concentrations. The cell cycle accumulation was examined by the propidium iodide staining and cytometric quantification after the cancer cells were cultured for 24 h.
To understand the cell cycle effect of the synthesized analogs, cell cycle distribution analysis was performed by FACS (Becton Dickinson, San Jose, CA, USA). […] After treatment, the cells were washed once with PBS and fixed with 70% ice-cold ethanol at […] for overnight. Ethanol was removed by Centrifugation. The cells were stained with a solution containing 0.1% Triton-X 100 (Sigma), 0.2 mg/mL RNase (Sigma), and […] propidium iodide (PI, Sigma) in the dark for 30 min at room temperature. Then, cell cycle distribution was analyzed by using a FACS can flow cytometer (Chen et al., [2013]).

[2] = tested on: EC9706 (human esophageal squamous cell carcinoma); test: MTT growth inhibition assay, EC9706; type: cell-based; details: EC9706, 48 h, read-out: IC50 (μM) EC9706
Description: (§2) Target compounds 12a–t were evaluated for in vitro cytotoxicity against four human tumor cell lines, including H460 (non-small cell lung carcinoma), HeLA (human cervical carcinoma), EC9706 (human esophageal squamous cell carcinoma), and T24 (human bladder carcinoma), using HaCaT (human immortalized epidermal cells) as a human non-malignant cell line. Etoposide (3) was included as a positive control. The screening procedure was based on the 3-(4, 5-dimethylthiazol-2-yl)-2, 5-diphenyltetrazoliun bromide (MTT) growth inhibition assay with triplicate experiments, and the results are summarized in Table 1.
(§3) The four human cancer cell lines and a normal human epidermal cell line of the screening panel, including H460 (human non-small cell lung carcinoma), HeLA (human cervical carcinoma), EC9706 (human esophageal squamous cell carcinoma), T24 (human bladder carcinoma), and HaCaT (human immortalized epidermal cells), were purchased from American Type Culture Collection (ATCC, Manassas, VA, U.S.A.). H460, EC9706, and T24 were maintained in RPMI 1640 medium containing 10% Fetal Bovine Serum, 100 units/ml penicillin, 100 μg/ml streptomycin under humidified incubator with 5% CO2 atmosphere at 37°C. HeLA and HaCaT were maintained in Dulbecco′s […] (DMEM) supplemented with 10% Fetal Bovine Serum 100 units/ml penicillin, 100 μg/ml streptomycin in a humidified incubator and 5% CO2 atmosphere at 37°C. Logarithmically growing cells were used for the following experiments.
(§4) The cytotoxicity of the synthesized compounds 12a–t against a panel of human cell lines was determined by the 3-(4,5-dimethylthiazol-2-yl)-2,5-diphenyltetrazoliun bromide (MTT) growth inhibition assay. The five human cell lines were, respectively, plated in 96-well-culture plates at the density of 1 × 10^5 cells per well and incubated for 24 h. Cells were exposed to different concentrations of synthetic podophyllotoxin derivatives for 48 h. MTT was added with a dose of 5 mg/mL in phosphate-buffered saline. After incubation for 4 h at 37°C, the purple formazan crystals were dissolved with […] dimethyl sulfoxide and the absorbance was measured at 570 nm in an ELISA reader. Antiproliferative activity was expressed using the IC50 value defined as the concentration of synthetic podophyllotoxin derivatives inhibiting cell proliferation by 50%. The cell viability ratio was calculated by the following formula: cell viability ratio (%) = OD treated /OD control × 100% (Ma et al., [2014]).

HeLA cells [3] = test: Hoechst 33258 staining, HeLA; type: cell-based, human; details: 0.75/1.5/3.0 μM, 24 h, vs vehicle 0.1% DMSO
Description: (§5) Apoptosis is one of the major pathways leading to the process of cell death. Visualization of chromatin condensation as well as nuclear shrinking and fragmentation—known as classic characteristics of apoptosis—was carried out in the presence of a representative compound 12g by staining T24 and HeLA cells with Hoechst 33258, by which apoptosis was confirmed as the cause of reduced cell viability.
(§6) T24 and HeLA cells were seeded at a density of 3 × 10^4 cells per well and cultured in 6 well-plates on a cover slip for 24 h at 37°C. Compound 12g treated T24 and HeLA cancer cells for 24 h at 37°C with concentrations of 0.5/1.0/2.0 and 0.75/1.5/3.0 μM, respectively. Afterward, the treated cells were fixed with 4% paraformaldehyde (PFA) for 30 min and stained with 5 μg/mL Hoechst 33258 (bis-benzimide; KeyGEN Bio TECH, China) for 30 min. Nuclei were stained with Hoechst 33258 to examine chromatin condensation or nuclear fragmentation, morphological characteristics of apoptosis. After the cells were washed twice with PBS, the cover slip was inverted and placed on a glass slide and mounted. Apoptotic cells with fluorescence of the soluble DNA fragments were detected directly and photographed under a phase contrast microscope (OLYMPUS IX51, Japan) in a Varian Fluorometer at an excitation wavelength of 365 nm and emission wavelength of 460 nm (Shareef et al., [2015]).

[4] = tested on: T24 (human bladder carcinoma); test: MTT growth inhibition assay, T24; type: cell-based; details: T24, 48 h, read-out: IC50 (μM) T24, MTT, 48 h, n = 3
Description: as §2, §3, §4

HeLA cells [5] = test: Cell cycle distribution analysis (FACS, propidium iodide), HeLA; type: cell-based, human; details: 24 h
Description: as §1
To understand the cell cycle effect of the synthesized analogs, cell cycle distribution analysis was performed by FACS (Becton Dickinson, San Jose, CA, USA). T24 and HeLA cells were treated with compound 12g for 24 h at 37°C with concentrations of 0.5/1.0/2.0 and 0.75/1.5/3.0 μM, respectively. After treatment, the cells were washed once with PBS and fixed with 70% ice-cold ethanol at […] for overnight. Ethanol was removed by Centrifugation. The cells were stained with a solution containing 0.1% Triton-X 100 (Sigma), 0.2 mg/mL RNase (Sigma), and […] propidium iodide (PI, Sigma) in the dark for 30 min at room temperature. Then, cell cycle distribution was analyzed by using a FACS can flow cytometer (Chen et al., [2013]).

[6] = tested on: H460 (human non-small cell lung carcinoma); test: MTT growth inhibition assay, H460; type: cell-based; details: NCI-H460, 48 h, read-out: IC50 (μM) H460
Description: as §2, §3, §4

[7] = tested on: HaCaT (human immortalized epidermal cells); test: MTT growth inhibition assay, HaCaT normal cells; type: cell-based; details: 48 h, read-out: IC50 (μM) HaCaT, MTT, 48 h, n = 3, normal cell line
Description: as §2, §3, §4

[8] = tested on: HeLA (human cervical carcinoma); test: MTT growth inhibition assay, HeLA; type: cell-based; details: Homo sapiens, 48 h, read-out: IC50 (μM) HeLA, MTT, 48 h, n = 3
Description: as §2, §3, §4

T24 cells [9] = test: Hoechst 33258 staining, T24; type: cell-based, human; details: T24, 0.5/1.0/2.0 μM, 24 h, vs vehicle 0.1% DMSO
Description: as §5, §6

## CCCN(CCC)CC(=O)NC1c2cc3c(cc2C(c2cc(OC)c(O)c(OC)c2)C2C(=O)OCC12)OCO3 (stereo not shown) [Compound 12g]
T24 cells [1]; T24, 0.75 μM as printed in text
  accumulation of T24 cells at G2/M phase: 65.15%
T24 cells [1]; T24, 1.5 μM as printed in text
  accumulation of T24 cells at G2/M phase: 62.76%
T24 cells [1]; T24, 3.0 μM as printed in text
  accumulation of T24 cells at G2/M phase: 79.87%
[2]
  IC50: > 50 µM
HeLA cells [3]
  apoptotic morphology (Hoechst 33258 staining): markedly increased chromatin condensation, nuclear fragmentation and morphological changes
[4]
  IC50: 2.98 ± 0.26 µM
HeLA cells [5]; 0.75 uM
  Cell cycle phase (%) G2/M: 79.69%
HeLA cells [5]; 1.5 uM
  Cell cycle phase (%) G2/M: 89.18%
HeLA cells [5]; 3 uM
  Cell cycle phase (%) G2/M: 90.66%
[6]
  IC50: 24.2 ± 0.77 µM
[7]
  IC50: > 50 µM
[8]
  IC50: 2.34 ± 0.39 µM
T24 cells [9]
  apoptotic morphology (Hoechst 33258 staining): markedly increased chromatin condensation, nuclear fragmentation and morphological changes
